Assay results published in patent publication US20250064741A1, “METHODS FOR ENHANCED NUCLEIC ACID DELIVERY” (CORNELL UNIVERSITY, priority 2021, published 2025).

System: mice
Test: Screening drugs with macrophage/monocyte depletion capability for enhanced mRNA delivery (Fluc expression, MC3-LNP)
Format: in vivo
Conditions: Fluc mRNA 0.2 mg/kg
Procedure: FIGS. 6A-6B. Luciferase expression of pretreated mice injected with MC3-LNP loaded with Fluc mRNA (0.2 mg/kg).
In this example, various small molecules or monoclonal antibodies with reported macrophage depletion capabilities were screened to evaluate the effectiveness to enhance mRNA delivery. Drugs used in this study include clodronate liposome (Lipo-Clodronate), anti-CD115, anti-CCR2, anti-Ly6C, anti-Gr-1 and zoledronate (10 μg, 50 μg and 100 μg).
FIG. 5 lists treatment methods studied in this example. […] In a different experiment, zoledronate was encapsulated in liposomes (formulated with DSPC and cholesterol) and delivered to the mouse at different dosage.

O=P(O)(O)C(O)(Cn1ccnc1)P(=O)(O)O [zoledronate]
mRNA delivery / Fluc expression of MC3-LNP in pretreated mice (10 μg of zoledronate): enhanced the mRNA delivery
Fluc expression of MC3-LNP in pretreated mice (high dose of zoledronate): decreased the Fluc expression
